Source: PubChem BioAssay (NCI)
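Dose response: 5 concentrations. Exposure: 48 h. Format: 96-well plates. Endpoint: linear interpolation; highest concentration if not reached. GI50: concentration for 50% inhibition of growth. At the TGI there is no net growth.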

Assays:
Experiment in all cases: NCI tumour cell line growth inhibition, 48 h
[1] = test system: COLO 205 colon
[2] = test system: HOP-92 NSCLC
[3] = test system: MALME-3M melanoma
[4] = test system: SK-MEL-2 melanoma
[5] = test system: KM12 colon
[6] = test system: SF-539 CNS
[7] = test system: MCF7 breast
[8] = test system: SR leukemia
[9] = test system: HCC-2998 colon
[10] = test system: SK-OV-3 ovarian
[11] = test system: ACHN renal
[12] = test system: K-562 leukemia
[13] = test system: HT29 colon
[14] = test system: U251 CNS
[15] = test system: M14 melanoma
[16] = test system: LOX IMVI melanoma
[17] = test system: HCT-15 colon
[18] = test system: NCI-H460 lung
[19] = test system: OVCAR-8 ovarian
[20] = test system: SF-268 CNS
[21] = test system: SNB-19 CNS
[22] = test system: OVCAR-4 ovarian
[23] = test system: DU-145 prostate
[24] = test system: SK-MEL-5 melanoma
[25] = test system: UO-31 renal
[26] = test system: NCI-H23 lung
[27] = test system: RXF 393 renal
[28] = test system: RPMI-8226 leukemia
[29] = test system: HS 578T breast
[30] = test system: HCT-116 colon
[31] = test system: SN12C renal
[32] = test system: HOP-62 NSCLC
[33] = test system: MDA-MB-231 breast
[34] = test system: PC-3 prostate
[35] = test system: SF-295 CNS
[36] = test system: HL-60(TB) leukemia
[37] = test system: SNB-75 CNS
[38] = test system: A549 NSCLC
[39] = test system: A498 renal
[40] = test system: BT-549 breast
[41] = test system: UACC-257 melanoma
[42] = test system: CCRF-CEM leukemia
[43] = test system: IGROV1 ovarian
[44] = test system: OVCAR-5 ovarian
[45] = test system: NCI/ADR-RES ovarian
[46] = test system: EKVX NSCLC
[47] = test system: NCI-H226 lung
[48] = test system: SK-MEL-28 melanoma
[49] = test system: MDA-MB-435
[50] = test system: OVCAR-3 ovarian
[51] = test system: SW-620 colon
[52] = test system: MOLT-4 leukemia
[53] = test system: NCI-H522 lung
[54] = test system: CAKI-1 renal
[55] = test system: TK-10 renal
[56] = test system: T-47D breast
[57] = test system: 786-0 renal
[58] = test system: UACC-62 melanoma

SMILES: O=C(CCc1nnc2sc(-c3ccc(Cl)cc3Cl)nn12)c1nc2ncccc2[nH]1
- GI50 [1]: 1930 nM
- TGI [1]: 4200 nM
- GI50 [2]: 1190 nM
- TGI [2]: 2600 nM
- GI50 [3]: 1850 nM
- TGI [3]: 4100 nM
- GI50 [4]: 2590 nM
- TGI [4]: 7270 nM
- GI50 [5]: 1830 nM
- TGI [5]: 3560 nM
- GI50 [6]: 1960 nM
- TGI [6]: 3980 nM
- GI50 [7]: 2590 nM
- TGI [7]: > 100000 nM
- GI50 [8]: 1900 nM
- TGI [8]: > 100000 nM
- GI50 [9]: 1770 nM
- TGI [9]: 3320 nM
- GI50 [10]: 21500 nM
- TGI [10]: 58000 nM
- GI50 [11]: 1540 nM
- TGI [11]: 2910 nM
- GI50 [12]: 2440 nM
- TGI [12]: > 100000 nM
- GI50 [13]: 2930 nM
- TGI [13]: 11800 nM
- GI50 [14]: 1920 nM
- TGI [14]: 3670 nM
- GI50 [15]: 3350 nM
- TGI [15]: 16500 nM
- GI50 [16]: 1690 nM
- TGI [16]: 3080 nM
- GI50 [17]: 1640 nM
- TGI [17]: 4610 nM
- GI50 [18]: 1890 nM
- TGI [18]: 3640 nM
- GI50 [19]: 3440 nM
- TGI [19]: > 100000 nM
- GI50 [20]: 3990 nM
- TGI [20]: 21400 nM
- GI50 [21]: 3530 nM
- TGI [21]: 16700 nM
- GI50 [22]: 1920 nM
- TGI [22]: 4260 nM
- GI50 [23]: 1920 nM
- TGI [23]: 3630 nM
- GI50 [24]: 1700 nM
- TGI [24]: 3090 nM
- GI50 [25]: 1130 nM
- TGI [25]: 2330 nM
- GI50 [26]: 1760 nM
- TGI [26]: 4410 nM
- GI50 [27]: 1800 nM
- TGI [27]: 3340 nM
- GI50 [28]: 1800 nM
- TGI [28]: 7590 nM
- GI50 [29]: 2710 nM
- TGI [29]: 8020 nM
- GI50 [30]: 1300 nM
- TGI [30]: 2650 nM
- GI50 [31]: 1990 nM
- TGI [31]: 4920 nM
- GI50 [32]: 2180 nM
- TGI [32]: 6770 nM
- GI50 [33]: 1740 nM
- TGI [33]: 4360 nM
- GI50 [34]: 1630 nM
- TGI [34]: 3630 nM
- GI50 [35]: 1830 nM
- TGI [35]: 3440 nM
- GI50 [36]: 2910 nM
- TGI [36]: 12800 nM
- GI50 [37]: 459 nM
- TGI [37]: 3790 nM
- GI50 [38]: 2780 nM
- TGI [38]: 10400 nM
- GI50 [39]: 1110 nM
- TGI [39]: 2410 nM
- GI50 [40]: 1980 nM
- TGI [40]: 4360 nM
- GI50 [41]: 3000 nM
- TGI [41]: 9010 nM
- GI50 [42]: 2680 nM
- TGI [42]: 9000 nM
- GI50 [43]: 1820 nM
- TGI [43]: 3800 nM
- GI50 [44]: 2330 nM
- TGI [44]: 5290 nM
- GI50 [45]: 2710 nM
- TGI [45]: 9120 nM
- GI50 [46]: 2710 nM
- TGI [46]: 7980 nM
- GI50 [47]: 1700 nM
- TGI [47]: 3660 nM
- GI50 [48]: 2440 nM
- TGI [48]: 5650 nM
- GI50 [49]: 1750 nM
- TGI [49]: 3680 nM
- GI50 [50]: 1520 nM
- TGI [50]: 3100 nM
- GI50 [51]: 1560 nM
- TGI [51]: 3680 nM
- GI50 [52]: 1150 nM
- TGI [52]: 60800 nM
- GI50 [53]: 1900 nM
- TGI [53]: 4490 nM
- GI50 [54]: 1420 nM
- TGI [54]: 3150 nM
- GI50 [55]: 2530 nM
- TGI [55]: 5160 nM
- GI50 [56]: 1470 nM
- TGI [56]: 5030 nM
- GI50 [57]: 1810 nM
- TGI [57]: 3530 nM
- GI50 [58]: 1650 nM
- TGI [58]: 3310 nM
